The values that follow come from article doi:10.1101/2024.05.30.596624v1 (biorxiv, 2024).

≈ marks a conversion by molar mass, not a printed value.

A short description of series [1]: in vitro. As to conditions: mouse, hepatocytes.
The nature of series [2]: physchem. As to conditions: 1-octanol/phosphate buffer, pH 7.4.
Series [3] in a line: in vitro. As to conditions: human, Caco-2.
The next series has as its system HepG2. Nature of the series: cells. The note with it: Homo sapiens, HepG2, read-out: Hu HepG2 EC50.
The nature of series [4]: in vitro. As to conditions: human, plasma.
A short description of series [5]: in vitro. As to conditions: human, liver microsomes. On the technique in general: Liver microsomes are vesicles of endoplasmic reticulum, rich in cytochrome P450 enzymes.
For another series, the target named is AMPK α1β1γ1 (Homo sapiens, UniProt Q13131+Q9Y478). Description: Caliper mobility shift kinase assay, FAM-SAMS peptide. It is filed as biochemical.
The nature of series [6]: in vitro. As to conditions: human, hepatocytes.
Series [7] can be described thus: in vitro. The note with it: rat, hepatocytes.
In another series the target is AMPK α1β2γ1 (Homo sapiens, UniProt O43741+Q13131). Nature of the series: Caliper mobility shift kinase assay, FAM-SAMS peptide. It is filed as biochemical.
The nature of series [8]: physchem. The note with it: aqueous phosphate buffer, pH 7.4, aqueous buffer.

Sequence of AMPK α1β1γ1 (Q13131 whole entry): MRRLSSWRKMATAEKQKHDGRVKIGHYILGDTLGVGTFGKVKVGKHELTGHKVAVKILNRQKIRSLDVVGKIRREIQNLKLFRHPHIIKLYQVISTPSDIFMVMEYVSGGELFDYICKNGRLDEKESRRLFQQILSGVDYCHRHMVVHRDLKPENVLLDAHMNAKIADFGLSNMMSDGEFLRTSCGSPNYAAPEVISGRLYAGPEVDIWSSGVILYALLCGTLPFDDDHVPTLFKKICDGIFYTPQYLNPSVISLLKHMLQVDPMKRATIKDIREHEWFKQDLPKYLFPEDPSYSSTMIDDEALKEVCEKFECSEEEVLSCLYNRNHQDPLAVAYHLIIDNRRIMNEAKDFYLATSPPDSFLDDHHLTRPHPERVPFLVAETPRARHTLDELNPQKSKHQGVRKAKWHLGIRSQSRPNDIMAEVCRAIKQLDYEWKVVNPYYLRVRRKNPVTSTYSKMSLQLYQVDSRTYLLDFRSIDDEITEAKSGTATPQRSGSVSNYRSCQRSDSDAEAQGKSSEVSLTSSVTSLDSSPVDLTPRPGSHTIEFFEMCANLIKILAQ
Sequence of AMPK α1β1γ1 (Q9Y478 2-270): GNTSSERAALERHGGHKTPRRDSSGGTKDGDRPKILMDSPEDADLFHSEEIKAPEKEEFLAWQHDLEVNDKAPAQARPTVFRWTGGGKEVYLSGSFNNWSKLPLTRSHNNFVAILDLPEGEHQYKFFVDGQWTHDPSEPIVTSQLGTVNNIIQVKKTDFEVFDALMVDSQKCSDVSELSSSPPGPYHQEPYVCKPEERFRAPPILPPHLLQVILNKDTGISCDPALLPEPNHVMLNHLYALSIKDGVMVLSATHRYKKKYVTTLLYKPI
Sequence of AMPK α1β1γ1 (P54619 whole entry partner): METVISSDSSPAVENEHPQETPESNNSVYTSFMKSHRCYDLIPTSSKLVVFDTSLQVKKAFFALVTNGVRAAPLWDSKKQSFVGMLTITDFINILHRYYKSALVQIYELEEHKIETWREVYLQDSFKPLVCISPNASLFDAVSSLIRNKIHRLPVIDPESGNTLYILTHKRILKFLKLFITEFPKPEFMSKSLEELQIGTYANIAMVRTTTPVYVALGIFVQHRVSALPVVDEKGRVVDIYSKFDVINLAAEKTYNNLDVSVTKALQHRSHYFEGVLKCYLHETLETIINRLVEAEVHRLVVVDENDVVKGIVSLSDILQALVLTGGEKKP
Sequence of AMPK α1β2γ1 (Q13131 whole entry): as the sequence (Q13131 whole entry) above
Sequence of AMPK α1β2γ1 (O43741 whole entry): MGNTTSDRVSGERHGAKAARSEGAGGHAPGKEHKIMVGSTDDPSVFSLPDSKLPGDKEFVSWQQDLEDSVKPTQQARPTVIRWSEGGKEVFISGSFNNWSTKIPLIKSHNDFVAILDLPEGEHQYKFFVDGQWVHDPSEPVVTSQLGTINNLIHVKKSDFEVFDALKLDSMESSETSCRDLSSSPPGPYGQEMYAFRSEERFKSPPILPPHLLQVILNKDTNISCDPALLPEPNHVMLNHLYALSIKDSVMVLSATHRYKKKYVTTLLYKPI
Sequence of AMPK α1β2γ1 (P54619 whole entry partner): as the sequence (P54619 whole entry partner) above

On to `CS(C)(=O)=Nc1ccc(-c2ccc(-c3nc4[nH]c(O[C@@H]5CO[C@H]6[C@@H]5OC[C@H]6O)nc4cc3Cl)cc2)cc1` [BI9774], for which the hepatocyte CLint is 8.6 µL/min/1e6 cells in “in vitro [1]”, less than 1 µL/min/1e6 cells in the series “in vitro [6]” and less than 1.4 µL/min/1e6 cells in “in vitro [7]”. The logD in the series “physchem [2]” was determined as 2.8. In the series “in vitro [3]”, the apparent permeability (Papp) came to 26 ×10⁻⁶ cm/s. The EC50 in the series with HepG2 was found to be 83.2 nM; at AMPK α1β1γ1, 20 ± 9.5 nM; on AMPK α1β2γ1, 63.1 ± 14.7 nM. This molecule also came in with a fraction unbound in the series “in vitro [4]” of 0.037. In the series “in vitro [5]”, this molecule had a microsomal CLint of less than 3 µL/min/mg. For the same molecule, the solubility at 27 h in the series “physchem [8]” was found to be 8 µM (≈ 4.33 µg/mL).

Usually hepatocyte CLint stands for a measure of how fast metabolising enzymes remove a compound, apart from limits set by blood flow. A lower hepatocyte CLint goes with slow turnover. The term logD denotes lipophilicity at a set pH, counting ionised and neutral species. Low values mean lower lipophilicity, high ones higher lipophilicity. The term Papp denotes the rate of passage across a membrane or cell layer, normalised by area and donor concentration. Read a high Papp as fast passage. Usually EC50 stands for the concentration at which the effect is half-maximal. By fraction unbound is commonly meant free concentration divided by total concentration. Low values mean little free substance, high ones much free substance. What is called microsomal CLint is the capacity of the preparation to metabolise the compound, expressed as a volume cleared per time. Lower therefore signals greater metabolic stability. As usually defined, the solubility is the dissolved amount per volume that the medium holds. Low readings indicate a poorly soluble substance, high ones a readily soluble substance.
